# Test results from patent US10597388B2, “Pyridazinone herbicides” (FMC CORPORATION, priority 2014, dated 2020).
# Read-outs that look alike come from different tables or passages of the source.
# What was measured:
# Format in all cases: in vivo
# [1] = test system: barnyardgrass (Echinochloa crus-galli); assay: Test C greenhouse herbicide test, pre- and postemergence
# Summary of the method: (§1)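 Two application timings: at sowing into a soil/sand blend, and on 2–18 cm seedlings in peat-vermiculite potting mix. A non-phytotoxic, surfactant-containing solvent carried the compounds. Plants were compared with controls and rated visually on 0–100 after 13–15 d.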
# [2] = test system: galium (catchweed bedstraw, Galium aparine); assay: as above
# Summary of the method: as §1
# [3] = test system: velvetleaf (Abutilon theophrasti); assay: as above
# Summary of the method: as §1
# [4] = test system: foxtail, giant (giant foxtail, Setaria faberii); assay: Test A greenhouse herbicide test, pre- and postemergence; conditions: for pest or weed control at 125 g/ha / pest or weed control at 500 g/ha: Setaria faberi, 240 h
# Summary of the method: (§2)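 Seeds sown in loam–sand blend got a preemergence directed soil spray of compound in non-phytotoxic solvent with surfactant. Postemergence treatment was given at 2–10 cm, one- to two-leaf stage. After ~10 d in greenhouse, injury was rated visually vs untreated controls, 0 (no effect) to 100 (complete control).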
# [5] = test system: ryegrass, Italian (Italian ryegrass, Lolium multiflorum); assay: as above; conditions: for pest or weed control at 125 g/ha / pest or weed control at 500 g/ha: Lolium multiflorum, 240 h
# Summary of the method: as §2
# [6] = test system: wheat (Triticum aestivum); assay: as above; conditions: Postemergence
# Summary of the method: as §2
# corn (Zea mays) = assay: as above; conditions: Postemergence
# Summary of the method: as §2
# [7] = test system: barnyardgrass (Echinochloa crus-galli); assay: as above; conditions: for pest or weed control at 125 g/ha / pest or weed control at 500 g/ha: Echinochloa crus-galli, 240 h
# Summary of the method: as §2
# kochia (Kochia scoparia) = assay: as above; conditions: for pest or weed control at 125 g/ha / pest or weed control at 500 g/ha: Bassia scoparia, 240 h
# Summary of the method: as §2
# [8] = test system: pigweed (Amaranthus retroflexus); assay: as above; conditions: for pest or weed control at 125 g/ha / pest or weed control at 500 g/ha: Amaranthus retroflexus, 240 h
# Summary of the method: as §2
# [9] = test system: ragweed (common ragweed, Ambrosia elatior); assay: as above; conditions: for pest or weed control at 125 g/ha / pest or weed control at 500 g/ha: Ambrosia artemisiifolia, 240 h
# Summary of the method: as §2
# [10] = Postemergence, 31 g ai/ha, 0 to 100 scale (0 no effect, 100 complete control)
# [11] = Postemergence, 125 g ai/ha, scale 0 to 100, 0 is no effect, 100 is complete control
# [12] = Postemergence, 250 g ai/ha, scale 0 to 100, 0 no effect, 100 complete control, 13 to 15 d
# [13] = postemergence, 62 g ai/ha, scale 0 to 100, 0 no effect, 100 complete control
# [14] = Preemergence, 31 g ai/ha, scale 0 to 100, 0 is no effect, 100 is complete control
# [15] = Preemergence, 62 g ai/ha, scale 0 to 100, 0 is no effect, 100 is complete control
# [16] = Preemergence, 125 g ai/ha, scale 0 to 100, 0 is no effect, 100 is complete control
# [17] = Preemergence, 250 g ai/ha, scale 0 to 100 (0 no effect, 100 complete control)
# [18] = Postemergence, 125 g ai/ha, 0 to 100 scale where 0 is no effect and 100 is complete control
# [19] = Postemergence, 500 g ai/ha, 0 to 100 scale, 0 is no effect, 100 is complete control
# [20] = Preemergence, 125 g ai/ha, 0 to 100 scale where 0 is no effect and 100 is complete control
# [21] = Preemergence, 500 g ai/ha, 0 to 100 scale where 0 is no effect and 100 is complete control
# [22] = 125 g ai/ha, 0 to 100 scale where 0 is no effect and 100 is complete control
# [23] = 500 g ai/ha, 0 to 100 scale, 0 is no effect, 100 is complete control
compound,measurement,setting,value
"CC(=O)Oc1c(C)nn(C)c(=O)c1-c1c(C)oc2c(C)cc(C)cc12 [Compound 16, 5-(acetyloxy)-2,6-dimethyl-4-(2,5,7-trimethyl-3-benzofuranyl)-3(2H)-pyridazinone]",Barnyardgrass plant response rating,[1]; [10],5
same,"Plant response rating, Barnyardgrass",[1]; [11],70
same,"Plant response rating, Barnyardgrass",[1]; [12],90
same,Barnyardgrass plant response rating,[1]; [13],70
same,Galium plant response rating,[2]; [10],60
same,"Plant response rating, Galium",[2]; [11],85
same,"Plant response rating, Galium",[2]; [12],80
same,Galium plant response rating,[2]; [13],80
same,Velvetleaf plant response rating,[3]; [10],5
same,"Plant response rating, Velvetleaf",[3]; [11],20
same,"Plant response rating, Velvetleaf",[3]; [12],35
same,Velvetleaf plant response rating,[3]; [13],5
same,pest or weed control at 125 g/ha,"[4]; post-emergence, Postemergence, 125 g ai/ha, visual rating after approx. 10 d, 0 to 100 scale (0 no effect, 100 complete control), read-out: Plant response rating, Foxtail, Giant",20%
same,pest or weed control at 500 g/ha,"[4]; post-emergence, Postemergence, 500 g ai/ha, 0 to 100 scale, 0 is no effect, 100 is complete control, read-out: Foxtail, Giant plant response rating",80%
same,pest or weed control at 125 g/ha,"[4]; pre-emergence, Preemergence, 125 g ai/ha, 0 to 100 scale where 0 is no effect and 100 is complete control, read-out: Foxtail, Giant plant response rating",0%
same,pest or weed control at 500 g/ha,"[4]; pre-emergence, Preemergence, 500 g ai/ha, 0 to 100 scale, 0 no effect, 100 complete control, read-out: Plant response rating, Foxtail, Giant",30%
same,pest or weed control at 125 g/ha,"[5]; post-emergence, Postemergence, 125 g ai/ha, visual rating after approx. 10 d, 0 to 100 scale (0 no effect, 100 complete control), read-out: Plant response rating, Ryegrass, Italian",50%
same,pest or weed control at 500 g/ha,"[5]; post-emergence, Postemergence, 500 g ai/ha, 0 to 100 scale, 0 is no effect, 100 is complete control, read-out: Ryegrass, Italian plant response rating",80%
same,pest or weed control at 125 g/ha,"[5]; pre-emergence, Preemergence, 125 g ai/ha, 0 to 100 scale where 0 is no effect and 100 is complete control, read-out: Ryegrass, Italian plant response rating",30%
same,pest or weed control at 500 g/ha,"[5]; pre-emergence, Preemergence, 500 g ai/ha, 0 to 100 scale, 0 no effect, 100 complete control, read-out: Plant response rating, Ryegrass, Italian",80%
same,plant injury at 125 g/ha,"[6]; Triticum aestivum, post-emergence, 240 h, 125 g ai/ha, visual rating after approx. 10 d, 0 to 100 scale (0 no effect, 100 complete control), read-out: Plant response rating, Wheat",0%
same,plant injury at 500 g/ha,"[6]; Triticum aestivum, post-emergence, 240 h, 500 g ai/ha, 0 to 100 scale, 0 is no effect, 100 is complete control, read-out: Wheat plant response rating",0%
same,"Corn plant response rating (crop injury, 0 = no effect, 100 = complete kill) at 125 g/ha","corn (Zea mays); Zea mays, post-emergence, 240 h, 125 g ai/ha, visual rating after approx. 10 d, 0 to 100 scale (0 no effect, 100 complete control)",0%
same,plant injury at 500 g/ha,"corn (Zea mays); Zea mays, post-emergence, 240 h, 500 g ai/ha, 0 to 100 scale, 0 is no effect, 100 is complete control, read-out: Corn plant response rating",0%
same,pest or weed control at 125 g/ha,"[7]; post-emergence, Postemergence, 125 g ai/ha, visual rating after approx. 10 d, 0 to 100 scale (0 no effect, 100 complete control), read-out: Plant response rating, Barnyardgrass",20%
same,pest or weed control at 500 g/ha,"[7]; post-emergence, Postemergence, 500 g ai/ha, 0 to 100 scale, 0 is no effect, 100 is complete control, read-out: Barnyardgrass plant response rating",90%
same,pest or weed control at 125 g/ha,"[7]; pre-emergence, Preemergence, 125 g ai/ha, 0 to 100 scale where 0 is no effect and 100 is complete control, read-out: Barnyardgrass plant response rating",10%
same,pest or weed control at 500 g/ha,"[7]; pre-emergence, Preemergence, 500 g ai/ha, 0 to 100 scale, 0 no effect, 100 complete control, read-out: Plant response rating, Barnyardgrass",70%
same,pest or weed control at 125 g/ha,"kochia (Kochia scoparia); post-emergence, Postemergence, 125 g ai/ha, visual rating after approx. 10 d, 0 to 100 scale (0 no effect, 100 complete control), read-out: Plant response rating, Kochia",50%
same,pest or weed control at 500 g/ha,"kochia (Kochia scoparia); post-emergence, Postemergence, 500 g ai/ha, 0 to 100 scale, 0 is no effect, 100 is complete control, read-out: Kochia plant response rating",60%
same,pest or weed control at 125 g/ha,"kochia (Kochia scoparia); pre-emergence, Preemergence, 125 g ai/ha, 0 to 100 scale where 0 is no effect and 100 is complete control, read-out: Kochia plant response rating",0%
same,pest or weed control at 500 g/ha,"kochia (Kochia scoparia); pre-emergence, Preemergence, 500 g ai/ha, 0 to 100 scale, 0 no effect, 100 complete control, read-out: Plant response rating, Kochia",30%
same,pest or weed control at 125 g/ha,"[8]; post-emergence, Postemergence, 125 g ai/ha, visual rating after approx. 10 d, 0 to 100 scale (0 no effect, 100 complete control), read-out: Plant response rating, Pigweed",30%
same,pest or weed control at 500 g/ha,"[8]; post-emergence, Postemergence, 500 g ai/ha, 0 to 100 scale, 0 is no effect, 100 is complete control, read-out: Pigweed plant response rating",40%
same,pest or weed control at 125 g/ha,"[8]; pre-emergence, Preemergence, 125 g ai/ha, 0 to 100 scale where 0 is no effect and 100 is complete control, read-out: Pigweed plant response rating",0%
same,pest or weed control at 500 g/ha,"[8]; pre-emergence, Preemergence, 500 g ai/ha, 0 to 100 scale, 0 no effect, 100 complete control, read-out: Plant response rating, Pigweed",70%
same,pest or weed control at 125 g/ha,"[9]; post-emergence, Postemergence, 125 g ai/ha, visual rating after approx. 10 d, 0 to 100 scale (0 no effect, 100 complete control), read-out: Plant response rating, Ragweed",30%
same,pest or weed control at 500 g/ha,"[9]; post-emergence, Postemergence, 500 g ai/ha, 0 to 100 scale, 0 is no effect, 100 is complete control, read-out: Ragweed plant response rating",70%
same,pest or weed control at 125 g/ha,"[9]; pre-emergence, Preemergence, 125 g ai/ha, 0 to 100 scale where 0 is no effect and 100 is complete control, read-out: Ragweed plant response rating",0%
same,pest or weed control at 500 g/ha,"[9]; pre-emergence, Preemergence, 500 g ai/ha, 0 to 100 scale, 0 no effect, 100 complete control, read-out: Plant response rating, Ragweed",0%
COC(=O)Oc1c(C)nn(C)c(=O)c1-c1c(C)sc2c(C)cc(C)cc12 [Compound 81],Barnyardgrass plant response rating,[1]; [10],25
same,"Plant response rating, Barnyardgrass",[1]; [11],35
same,"Plant response rating, Barnyardgrass",[1]; [12],60
same,"Plant response rating, Barnyardgrass",[1]; [14],30
same,"Plant response rating, Barnyardgrass",[1]; [15],70
same,"Plant response rating, Barnyardgrass",[1]; [16],80
same,Barnyardgrass plant response rating,[1]; [17],98
same,Barnyardgrass plant response rating,[1]; [13],35
same,"Plant response rating, Galium",[2]; [11],95
same,"Plant response rating, Galium",[2]; [12],95
same,"Plant response rating, Galium",[2]; [14],90
same,"Plant response rating, Galium",[2]; [15],95
same,"Plant response rating, Galium",[2]; [16],95
same,Galium plant response rating,[2]; [17],95
same,Galium plant response rating,[2]; [13],95
same,"Plant response rating, Velvetleaf",[3]; [11],90
same,"Plant response rating, Velvetleaf",[3]; [12],90
same,"Plant response rating, Velvetleaf",[3]; [14],35
same,"Plant response rating, Velvetleaf",[3]; [15],65
same,"Plant response rating, Velvetleaf",[3]; [16],85
same,Velvetleaf plant response rating,[3]; [17],98
same,Velvetleaf plant response rating,[3]; [13],85
same,"Plant response rating, Foxtail, Giant",[4]; [18],90
same,"Foxtail, Giant plant response rating",[4]; [19],100
same,"Foxtail, Giant plant response rating",[4]; [20],100
same,"Plant response rating, Foxtail, Giant",[4]; [21],100
same,"Plant response rating, Ryegrass, Italian",[5]; [18],100
same,"Ryegrass, Italian plant response rating",[5]; [19],100
same,"Ryegrass, Italian plant response rating",[5]; [20],100
same,"Plant response rating, Ryegrass, Italian",[5]; [21],100
same,"Plant response rating, Wheat",[6]; [22],0
same,Wheat plant response rating,[6]; [23],0
same,"Plant response rating, Corn",corn (Zea mays); [22],0
same,Corn plant response rating,corn (Zea mays); [23],0
same,"Plant response rating, Barnyardgrass",[7]; [18],30
same,Barnyardgrass plant response rating,[7]; [19],90
same,Barnyardgrass plant response rating,[7]; [20],90
same,"Plant response rating, Barnyardgrass","[7]; Preemergence, 500 g ai/ha, 0 to 100 scale, 0 no effect, 100 complete control",100
same,"Plant response rating, Kochia",kochia (Kochia scoparia); [18],60
same,Kochia plant response rating,kochia (Kochia scoparia); [19],100
same,Kochia plant response rating,kochia (Kochia scoparia); [20],30
same,"Plant response rating, Kochia",kochia (Kochia scoparia); [21],100
same,"Plant response rating, Pigweed",[8]; [18],100
same,Pigweed plant response rating,[8]; [19],100
same,Pigweed plant response rating,[8]; [20],100
same,"Plant response rating, Pigweed",[8]; [21],100
same,"Plant response rating, Ragweed",[9]; [18],90
same,Ragweed plant response rating,[9]; [19],100
same,Ragweed plant response rating,[9]; [20],90
same,"Plant response rating, Ragweed",[9]; [21],100
